Entries after “also recorded” stand apart in the source; their conditions may differ.
Key:
SW48 cells [1] = assay: Cell cycle arrest by PI flow cytometry; type: cell-based, human; settings: SW48, 3.125 μM, 72 h
Method: (§1) A PI/RNase staining assay (BD Bioscience™) was performed to reveal the presence of cell cycle arrest and apoptotic cells after treatment with GNTbm compounds, Chidamide and Entinostat. […] After treatment cells were harvested, fixed with 80% ethanol for 24 h, washed with 1×PBS and stained with PI/RNase for 15 min at room temperature. The cells were then analyzed using Flow Cytometer within 1 h.

MDA-MB-231 cells [2] = assay: Cell cycle arrest by PI flow cytometry; type: cell-based, human; settings: MDA-MB-231, 3.125 μM, 72 h
Method: as §1

[3] = system: histone H3 acetylation (AcH3) in MDA-MB-231 cells; assay: Western blot of histone H3 acetylation; type: cell-based, human; settings: MDA-MB-231, 1.0 μM
Summary of the method: (§2)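 MDA-MB-231 and SW48 cells in L-15 with 10% FCS were treated at indicated doses for 24 h or over a time course. RIPA lysates were immunoblotted for acetylated histone H3 with β-actin as loading control, using ECL detection.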

[4] = system: histone H3 acetylation (AcH3) in SW48 cells; assay: Western blot of histone H3 acetylation; type: cell-based, human; settings: SW48, 1.0 μM, 2-72 h
Summary of the method: as §2

HDAC3 [5] = molecular target: T1, HDAC3 (Homo sapiens (Human), UniProt O15379); assay: HDAC3 enzymatic kinetic assay; type: biochemical; settings: 2 μM; 20 min, 40 min and 60 min
Method: (§3) HDAC3 enzymatic kinetic assay was performed according to standard Protocols (Fluorgenic HDAC3 assay kit, BPS Bioscience™). […] After incubation, assay developer was added to the samples and the absorbance was read at fluorogenic wavelength. The relative inhibition to HDAC3 activity in each sample was determined.

SW48 cells [6] = assay: Cell proliferation and morphology by phase-contrast light microscopy; type: cell-based, human; settings: SW48, 3.125 μM, 72 h
Text: (§4) (FIG. 3A) MDA-MB-231 cells, (FIG. 3B) SW48 cells, (FIG. 3C) M10 cells.

M10 cells [7] = assay: as above; type: cell-based, human; settings: M10, 12.5 μM
Text: as §4

MDA-MB-231 cells [8] = assay: as above; type: cell-based, human; settings: MDA-MB-231, 12.5 μM, 72 h
Text: as §4

HDAC6 = HDAC6 (Homo sapiens (Human), UniProt Q9UBN7); assay: HDACs 1-11 enzymatic inhibition by BPS Bioscience
Method: (§5) HDAC assay was performed according to standard Protocols (Fluorgenic HDACs 1-11 assay kit, BPS Bioscience™). […] After 0.5 h, assay developer was added to the samples and the absorbance was read at fluorogenic wavelength. The relative inhibition to HDACs 1, 2, 3, 4, 5, 6, 7, 8, 9, and 11 activities was determined in each sample. […] All of the compounds were dissolved in DMSO. The serial dilution of the compounds was first performed in 100% DMSO with the highest concentration at 1 mM. Each intermediate compound dilution (in 100% DMSO) would then get directly diluted 10× fold into assay buffer for an intermediate dilution of 10% DMSO in HDAC assay buffer and 5 μl of the dilution was added to a 50 μl reaction so that the final concentration of DMSO is 1% in all of the reactions. The enzymatic reactions for the HDAC enzymes were conducted in duplicate at 37° C. for 30 minutes in a 50 μl mixture containing HDAC assay buffer, 5 μg BSA, an HDAC substrate, a HDAC enzyme and a test compound. After enzymatic reactions, 50 μl of 2×HDAC Developer was added to each well for the HDAC enzymes and the plate was incubated at room temperature for an additional 15 minutes. Fluorescence intensity was measured at an excitation of 360 nm and an emission of 460 nm using a Tecan Infinite M1000 microplate reader. HDAC activity assays were performed in duplicate at each concentration. The fluorescent intensity data were analyzed using the computer software, Graphpad Prism. In the absence of the compound, the fluorescent intensity (Ft) in each data set was defined as 100% activity. In the absence of HDAC, the fluorescent intensity (Fb) in each data set was defined as 0% activity. The percent activity in the presence of each compound was calculated according to the following equation: % activity=(F−Fb)/(Ft−Fb), where F=the fluorescent intensity in the presence of the compound. […] The IC50 value was determined by the concentration causing a half-maximal percent activity.

HDAC1 = HDAC1 (Homo sapiens (Human), UniProt Q13547); assay: HDACs 1, 2, and 3 enzymatic inhibition (fluorogenic kit, 1 h); type: biochemical; settings: 37° C.
Method: as §3, with “HDACs” for “HDAC3 enzymatic kinetic”, “HDACs 1, 2, and 3” for “HDAC3”, “1 h,” for “incubation,”, “HDACs 1, 2, and 3 activities” for “HDAC3 activity”

HDAC2 = HDAC2 (Homo sapiens (Human), UniProt Q92769); assay: as above; type: biochemical; settings: 37° C.
Method: as §3, with “HDACs” for “HDAC3 enzymatic kinetic”, “HDACs 1, 2, and 3” for “HDAC3”, “1 h,” for “incubation,”, “HDACs 1, 2, and 3 activities” for “HDAC3 activity”

HDAC3 [9] = molecular target: T1, HDAC3; assay: as above; type: biochemical; settings: 37° C.
Method: as §3, with “HDACs” for “HDAC3 enzymatic kinetic”, “HDACs 1, 2, and 3” for “HDAC3”, “1 h,” for “incubation,”, “HDACs 1, 2, and 3 activities” for “HDAC3 activity”

SW48 cells [10] = assay: Cell apoptosis (sub-G1) by PI flow cytometry; type: cell-based, human; settings: SW48, 6.25 μM, 72 h
Method: as §1

M10 cells [11] = assay: Cell apoptosis (sub-G1) by PI flow cytometry; type: cell-based, human; settings: M10, 12.5 μM, 72 h
Method: as §1

MDA-MB-231 cells [12] = assay: Cell apoptosis (sub-G1) by PI flow cytometry; type: cell-based, human; settings: MDA-MB-231, 6.25 μM, 72 h
Method: as §1

HDAC3/NCOR2 = HDAC3/NCOR2 (Homo sapiens (Human), UniProt O15379); assay: HDACs 1-11 enzymatic inhibition by BPS Bioscience
Method: HDAC assay was performed according to standard Protocols (Fluorgenic HDACs 1-11 assay kit, BPS Bioscience™). […] After 0.5 h, assay developer was added to the samples and the absorbance was read at fluorogenic wavelength. The relative inhibition to HDACs 1, 2, 3, 4, 5, 6, 7, 8, 9, and 11 activities was determined in each sample. […] All of the compounds were dissolved in DMSO. The serial dilution of the compounds was first performed in 100% DMSO with the highest concentration at 1 mM. Each intermediate compound dilution (in 100% DMSO) would then get directly diluted 10× fold into assay buffer for an intermediate dilution of 10% DMSO in HDAC assay buffer and 5 μl of the dilution was added to a 50 μl reaction so that the final concentration of DMSO is 1% in all of the reactions. […] Fluorescence intensity was measured at an excitation of 360 nm and an emission of 460 nm using a Tecan Infinite M1000 microplate reader. […] The fluorescent intensity data were analyzed using the computer software, Graphpad Prism. […] The percent activity in the presence of each compound was calculated according to the following equation: % activity=(F−Fb)/(Ft−Fb), where F=the fluorescent intensity in the presence of the compound. […] The IC50 value was determined by the concentration causing a half-maximal percent activity.

HDAC5 = HDAC5 (Homo sapiens (Human), UniProt Q9UQL6); assay: HDACs 1-11 enzymatic inhibition by BPS Bioscience
Method: as §5

HDAC9 = HDAC9 (Homo sapiens (Human), UniProt Q9UKV0); assay: HDACs 1-11 enzymatic inhibition by BPS Bioscience
Method: as §5

SK-BR-3 = assay: In vitro cytotoxicity MTT assay; type: cell-based; settings: Homo sapiens, 72 h, IC50 ± SD
Summary of the method: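 Plated 96-well (MDA-MB-231 6×10^3; others 2.4×10^4); treated 72 h; MTT.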

NCI-N87 = assay: In vitro cytotoxicity MTT assay; type: cell-based; settings: Homo sapiens, 72 h, IC50 ± SD
Summary of the method: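 After plating MDA-MB-453, NCI-N87 and SW48 at 2.4×10^4 and MDA-MB-231 at 6×10^3 in 96 wells, cultures were incubated for 72 h. Cellular viability was then quantified with an MTT assay.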

HDAC4 = HDAC4 (Homo sapiens (Human), UniProt P56524); assay: HDACs 1-11 enzymatic inhibition by BPS Bioscience
Chain of HDAC4 (P56524 whole entry): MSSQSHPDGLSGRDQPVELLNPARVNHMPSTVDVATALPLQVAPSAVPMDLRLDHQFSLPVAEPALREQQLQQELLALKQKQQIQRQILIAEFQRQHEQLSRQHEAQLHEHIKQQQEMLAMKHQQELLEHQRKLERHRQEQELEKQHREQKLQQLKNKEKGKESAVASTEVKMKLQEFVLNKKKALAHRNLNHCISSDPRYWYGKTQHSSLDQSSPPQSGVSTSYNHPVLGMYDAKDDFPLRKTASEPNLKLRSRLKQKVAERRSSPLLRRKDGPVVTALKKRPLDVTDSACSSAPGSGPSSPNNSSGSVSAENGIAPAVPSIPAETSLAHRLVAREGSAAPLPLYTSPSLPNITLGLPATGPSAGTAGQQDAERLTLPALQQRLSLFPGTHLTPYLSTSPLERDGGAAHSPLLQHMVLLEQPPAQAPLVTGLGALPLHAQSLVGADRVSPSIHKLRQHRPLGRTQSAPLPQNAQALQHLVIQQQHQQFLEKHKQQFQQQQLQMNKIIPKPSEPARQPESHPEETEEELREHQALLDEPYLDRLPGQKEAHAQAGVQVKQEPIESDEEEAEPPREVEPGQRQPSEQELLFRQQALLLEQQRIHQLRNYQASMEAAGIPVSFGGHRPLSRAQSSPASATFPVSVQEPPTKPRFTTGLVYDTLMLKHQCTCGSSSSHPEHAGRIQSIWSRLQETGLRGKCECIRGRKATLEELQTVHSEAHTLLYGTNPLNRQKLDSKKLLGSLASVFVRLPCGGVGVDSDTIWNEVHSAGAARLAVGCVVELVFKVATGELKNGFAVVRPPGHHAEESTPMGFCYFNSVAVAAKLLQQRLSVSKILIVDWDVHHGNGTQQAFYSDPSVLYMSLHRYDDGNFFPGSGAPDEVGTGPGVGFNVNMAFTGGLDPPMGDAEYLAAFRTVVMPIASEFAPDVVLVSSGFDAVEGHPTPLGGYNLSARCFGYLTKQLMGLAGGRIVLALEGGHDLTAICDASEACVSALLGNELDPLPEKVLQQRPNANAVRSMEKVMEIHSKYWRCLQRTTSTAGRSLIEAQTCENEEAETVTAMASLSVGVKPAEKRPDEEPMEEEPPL
Method: as §5

T1 sequence (O15379 whole entry): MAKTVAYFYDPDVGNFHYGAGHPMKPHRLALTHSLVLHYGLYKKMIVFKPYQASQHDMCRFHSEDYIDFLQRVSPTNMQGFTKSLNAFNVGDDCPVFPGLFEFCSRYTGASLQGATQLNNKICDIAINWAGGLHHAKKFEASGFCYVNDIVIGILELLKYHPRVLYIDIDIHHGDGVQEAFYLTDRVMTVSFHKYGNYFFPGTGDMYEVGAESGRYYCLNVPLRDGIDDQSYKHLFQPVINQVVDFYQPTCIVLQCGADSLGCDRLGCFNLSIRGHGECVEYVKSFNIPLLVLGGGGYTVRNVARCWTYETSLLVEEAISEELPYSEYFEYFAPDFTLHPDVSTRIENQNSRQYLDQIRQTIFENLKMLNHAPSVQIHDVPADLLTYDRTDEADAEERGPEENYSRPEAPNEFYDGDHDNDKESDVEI
T1 sequence (Q9Y618 395-489 partner): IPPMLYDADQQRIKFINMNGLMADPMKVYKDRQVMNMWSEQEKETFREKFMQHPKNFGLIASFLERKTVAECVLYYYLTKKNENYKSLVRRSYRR
Chain of HDAC9 (Q9UKV0 whole entry): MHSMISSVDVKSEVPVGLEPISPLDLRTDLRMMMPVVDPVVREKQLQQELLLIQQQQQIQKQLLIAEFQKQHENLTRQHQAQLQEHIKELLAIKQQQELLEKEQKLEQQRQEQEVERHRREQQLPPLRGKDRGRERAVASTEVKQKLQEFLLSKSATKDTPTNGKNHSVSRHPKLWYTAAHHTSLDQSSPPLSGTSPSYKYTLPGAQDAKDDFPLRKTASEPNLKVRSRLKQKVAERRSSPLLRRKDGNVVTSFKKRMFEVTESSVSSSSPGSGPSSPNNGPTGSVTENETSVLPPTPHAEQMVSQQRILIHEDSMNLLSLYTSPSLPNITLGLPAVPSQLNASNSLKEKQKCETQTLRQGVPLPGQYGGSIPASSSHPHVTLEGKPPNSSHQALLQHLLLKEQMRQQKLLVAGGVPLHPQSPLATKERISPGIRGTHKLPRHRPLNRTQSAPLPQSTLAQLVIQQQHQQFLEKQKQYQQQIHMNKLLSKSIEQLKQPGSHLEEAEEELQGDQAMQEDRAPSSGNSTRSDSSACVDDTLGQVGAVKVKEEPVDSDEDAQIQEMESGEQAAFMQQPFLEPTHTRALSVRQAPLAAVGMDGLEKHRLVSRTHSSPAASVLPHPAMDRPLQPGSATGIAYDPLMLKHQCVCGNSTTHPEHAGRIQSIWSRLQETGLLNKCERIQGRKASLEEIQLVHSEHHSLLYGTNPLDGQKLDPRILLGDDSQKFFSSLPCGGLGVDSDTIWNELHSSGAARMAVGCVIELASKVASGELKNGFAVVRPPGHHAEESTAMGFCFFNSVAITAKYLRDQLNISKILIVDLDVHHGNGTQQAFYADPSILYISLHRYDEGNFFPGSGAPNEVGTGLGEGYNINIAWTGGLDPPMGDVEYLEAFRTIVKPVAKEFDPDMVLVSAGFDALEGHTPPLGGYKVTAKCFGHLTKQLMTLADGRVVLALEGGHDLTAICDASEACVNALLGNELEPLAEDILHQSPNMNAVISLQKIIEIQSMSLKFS
Chain of HDAC6 (Q9UBN7 whole entry): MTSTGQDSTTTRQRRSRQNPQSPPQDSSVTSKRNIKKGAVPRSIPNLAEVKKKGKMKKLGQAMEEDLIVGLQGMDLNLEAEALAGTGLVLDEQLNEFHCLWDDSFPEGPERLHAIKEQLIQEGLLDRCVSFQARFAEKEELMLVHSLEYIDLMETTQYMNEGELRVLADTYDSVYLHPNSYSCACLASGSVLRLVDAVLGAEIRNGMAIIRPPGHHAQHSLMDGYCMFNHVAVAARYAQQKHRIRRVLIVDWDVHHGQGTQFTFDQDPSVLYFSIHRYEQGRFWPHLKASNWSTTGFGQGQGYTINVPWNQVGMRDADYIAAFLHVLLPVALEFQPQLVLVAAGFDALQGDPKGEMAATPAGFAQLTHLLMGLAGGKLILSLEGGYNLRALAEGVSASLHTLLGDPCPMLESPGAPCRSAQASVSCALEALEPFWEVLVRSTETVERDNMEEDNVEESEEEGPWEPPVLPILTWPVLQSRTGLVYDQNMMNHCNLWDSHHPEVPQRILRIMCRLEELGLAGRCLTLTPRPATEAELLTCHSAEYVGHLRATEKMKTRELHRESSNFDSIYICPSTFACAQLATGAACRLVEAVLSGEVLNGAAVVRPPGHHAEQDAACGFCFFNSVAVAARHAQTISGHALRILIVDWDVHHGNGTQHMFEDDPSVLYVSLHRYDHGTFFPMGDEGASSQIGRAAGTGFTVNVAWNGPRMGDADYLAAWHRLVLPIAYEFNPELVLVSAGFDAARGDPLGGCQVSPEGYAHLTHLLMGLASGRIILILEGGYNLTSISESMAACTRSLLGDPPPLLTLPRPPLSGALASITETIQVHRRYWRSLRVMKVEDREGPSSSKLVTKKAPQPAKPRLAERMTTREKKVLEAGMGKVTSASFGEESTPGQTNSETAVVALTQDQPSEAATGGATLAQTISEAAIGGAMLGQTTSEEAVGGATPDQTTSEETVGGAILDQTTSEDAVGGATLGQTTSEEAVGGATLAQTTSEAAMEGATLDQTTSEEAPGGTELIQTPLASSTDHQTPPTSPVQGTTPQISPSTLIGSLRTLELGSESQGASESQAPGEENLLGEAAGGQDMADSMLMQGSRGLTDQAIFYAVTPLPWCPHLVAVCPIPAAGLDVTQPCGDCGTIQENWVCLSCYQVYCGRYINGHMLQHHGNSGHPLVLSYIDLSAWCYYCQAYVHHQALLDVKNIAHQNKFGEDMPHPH
Chain of HDAC5 (Q9UQL6 whole entry): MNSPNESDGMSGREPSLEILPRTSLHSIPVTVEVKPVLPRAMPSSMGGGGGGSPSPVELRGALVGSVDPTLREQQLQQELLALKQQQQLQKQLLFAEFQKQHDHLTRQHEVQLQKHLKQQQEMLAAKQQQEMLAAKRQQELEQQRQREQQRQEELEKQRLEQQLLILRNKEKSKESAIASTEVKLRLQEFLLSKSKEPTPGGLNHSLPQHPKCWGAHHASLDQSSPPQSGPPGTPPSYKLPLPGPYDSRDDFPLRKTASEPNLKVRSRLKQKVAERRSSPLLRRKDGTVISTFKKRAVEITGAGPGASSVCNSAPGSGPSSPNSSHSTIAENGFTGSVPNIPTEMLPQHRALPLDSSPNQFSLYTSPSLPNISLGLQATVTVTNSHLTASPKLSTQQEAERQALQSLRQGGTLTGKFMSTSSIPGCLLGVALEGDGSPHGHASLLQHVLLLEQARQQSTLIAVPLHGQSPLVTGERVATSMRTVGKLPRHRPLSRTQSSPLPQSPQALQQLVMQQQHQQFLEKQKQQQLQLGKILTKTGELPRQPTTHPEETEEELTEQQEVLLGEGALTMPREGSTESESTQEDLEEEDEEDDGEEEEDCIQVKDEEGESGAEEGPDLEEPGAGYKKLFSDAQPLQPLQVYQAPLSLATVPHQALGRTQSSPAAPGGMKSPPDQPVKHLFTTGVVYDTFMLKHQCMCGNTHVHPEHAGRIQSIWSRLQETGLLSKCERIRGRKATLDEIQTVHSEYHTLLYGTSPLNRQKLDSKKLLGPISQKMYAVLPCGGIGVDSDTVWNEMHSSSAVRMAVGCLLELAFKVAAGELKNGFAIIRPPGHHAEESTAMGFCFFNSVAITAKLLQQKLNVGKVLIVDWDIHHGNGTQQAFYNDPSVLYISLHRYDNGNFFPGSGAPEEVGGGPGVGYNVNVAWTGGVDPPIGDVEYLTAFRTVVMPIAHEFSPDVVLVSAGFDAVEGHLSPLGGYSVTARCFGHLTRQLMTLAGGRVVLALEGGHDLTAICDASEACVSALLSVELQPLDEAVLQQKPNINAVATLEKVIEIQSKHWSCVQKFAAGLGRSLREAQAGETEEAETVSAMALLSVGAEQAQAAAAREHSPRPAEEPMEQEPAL
Chain of HDAC3/NCOR2 (O15379 whole entry): as the sequence (O15379 whole entry) above
Chain of HDAC3/NCOR2 (Q9Y618 395-489 partner): as the sequence (Q9Y618 395-489 partner) above

IC50 (HDAC6): > 10000 nM
IC50 (HDAC1): 520 ± 20 nM
IC50 (HDAC2): 550 ± 60 nM
IC50 (HDAC3 [9]): 670 ± 5 nM
IC50 (HDAC3/NCOR2): 730 nM
IC50 (HDAC5): > 10000 nM
IC50 (HDAC9): > 10000 nM
IC50 (HDAC4): > 10000 nM
SMILES: Cc1ccc(/C=C/CC(=O)Nc2ccc(C(=O)Nc3ccc(F)cc3N)nc2)cn1 [GNTbm-02, 5-((E)-4-(6-methylpyridin-3-yl)but-3-enamido)-N-(2-amino-4-fluorophenyl)pyridine-2-carboxamide]
Cell cycle arrest (SW48 cells [1]): significantly induced cell cycle arrest in G0/G1 phase
Cells in G0/G1 phase (SW48 cells [1]): 76.9%
Cell cycle arrest (MDA-MB-231 cells [2]): significantly induced cell cycle arrest in G0/G1 phase
Histone H3 acetylation, time course ([3]; 2-72 h): potently induced histone H3 acetylation in MDA-MB-231 cell after 6 h treatment
Level of histone H3 acetylation ([3]; 24 h): significantly increased the level of histone H3 acetylation
Histone H3 acetylation, time course [4]: potently induced histone H3 acetylation level in SW48 cells after 6 h treatment
Inhibition of HDAC 3 enzyme activities (kinetics) (HDAC3 [5]): stronger inhibition of HDAC 3 enzyme activities than Entinostat; also recorded: stronger inhibition of HDAC 3 enzyme activities than GNTbm-01
Inhibition of cell proliferation (SW48 cells [6]): inhibitory effect was more obvious for SW48 cells
Inhibition of cell proliferation (M10 cells [7]): significantly inhibited cell proliferation
Inhibition of cell proliferation (MDA-MB-231 cells [8]): significantly inhibiting cell proliferation
HDAC6 Inhibition at 10 μM (HDAC6; 10 μM): not inhibited; also recorded: No Inhibition at 10 μM
Induction of apoptosis (sub-G1 phase) (SW48 cells [10]): significantly induced apoptosis
Induction of apoptosis (sub-G1 phase) (M10 cells [11]): significantly induced apoptosis in M10 cells
Induction of apoptosis (sub-G1 phase) (MDA-MB-231 cells [12]): significantly induced apoptosis
HDAC5 Inhibition at 10 μM (HDAC5; 10 μM): not inhibited; also recorded: No Inhibition at 10 μM
HDAC9 Inhibition at 10 μM (HDAC9; 10 μM): not inhibited; also recorded: No Inhibition at 10 μM
IC50 (SK-BR-3): 2000 ± 15 nM
IC50 (NCI-N87): 4010 ± 490 nM
HDAC4 Inhibition at 10 μM (HDAC4; 10 μM): not inhibited; also recorded: No Inhibition at 10 μM

— patent US11672788B2, “Histone deacetylase inhibitors for immunomodulation in tumor microenvironment” (GREAT NOVEL THERAPEUTICS BIOTECH & MEDICALS CORPORATION, priority 2020, dated 2023)
